Assay results taken from US5684036A, “Cytotoxic macrolides and methods of use” (Harbor Branch Oceanographic Institution, Inc., priority 1995, dated 1997).
Values after ≈ are worked out from the molar mass of the structure shown. Like-named read-outs stand apart in the source and are kept apart here.

Tests used:
Type in all cases: cell-based
[1] = system: P388 murine leukemia cells; experiment: antiproliferative effect against P388 murine leukemia cells (MTT, 48 hour exposure); details: for IC50: Mus musculus, P388
Description: (§1) Lasonolide A was tested for toxicity against P388 murine leukemia cells and A549 human lung carcinoma cells, and for their ability to perturb signal transduction pathways associated with activation of protein kinase C (PKC) and EL-4 cell adherence.
(§2) A. Maintenance of cell line. The P388 murine leukemia cells were obtained from Dr. J. Mayo, National Cancer Institute, Bethesda, Md. The A549 cells and EL-4.IL-2 cells (TIB) were obtained from the American Type Culture Collection, Rockville, Md. The P388 cells were maintained in Roswell Park Memorial Institute medium 1640 (RPMI-1640) supplemented with 10% horse serum and cultured in plastic tissue culture flasks and kept in an incubator at 37° C. in humidified air containing 5% CO2. The A549 cells were similarly maintained in RPMI-1640 but supplemented with 10% fetal bovine serum. Antibiotic-free stock cultures of P388 and A549 cells were subcultured to 10^5 cells/mi by dilutions in fresh growth medium at 2 to 5 day intervals. The EL-4 cells were similarly maintained but supplemented with 10% v/v heat-inactivated fetal calf serum, 100 U/ml penicillin, 100 μg/ml streptomycin, 6/ μg/ml L-glutamine, and 5×10^-3 M 2-mercaptoethanol (TCM) (Grand Island Biologicals Co., Grand Island, N.Y.).
B. Procedure. […]
(§3) To quantitate the effects of Lasonolide A or its analogs on cell proliferation, 75 μl warm growth medium containing 5 mg/ml MTT was added to each well. […] To spectrophotometrically quantitate formation of reduced formazan, plates were centrifuged (900 g, 5 minutes), culture fluids were removed by aspiration, and 200 μl of acidified isopropanol (2 ml concentrated HCl/L isopropanol) added per well. The absorbance of the resulting solutions was measured at 570 nm with a plate reader (MR700 Microplate Reader, Dynatech Laboratories, Chantilly, Va.). […]

[2] = system: EL-4 cell adherence (protein kinase C); experiment: EL-4 adherence assay (PKC-associated, with or without PMA); parameters: key to EL-4 Adherence: Inh: inhibition; details: for IC50: Mus musculus, EL4
Description: as §1, §2
Cells were passaged every 3-4 days. Viability was determined by Trypan blue exclusion and always exceeded 80%. For the adherence assay, cells were utilized within 15 passages of frozen stock cultures. Phorbol-12-myristate-13-acetate (PMA), and 4α-phorbol-12-myristate-13-acetate (4α-PMA) were obtained from LC Services Corporation (Woburn, Mass.). Stock solutions of PMA and 4α-PMA were prepared in DMSO and were stored at -70° C. prior to use.
To assess the effect of the subject compound on EL-4 cells, EL-4 cells (2.5×10^5 /well) were cultured in 96-well, flat-bottomed microtiter test plates at 37° C. with the sponge metabolites in triplicate concentrations in the presence (Plate #1) or absence (Plate #2) of PMA (16 nM final concentration). […] Controls consisted of cells incubated alone (negative control) and cells incubated with PMA (positive control). An additional control plate (Plate #3), consisting of EL-4.1IL-2 cells and identical dilutions of compounds in the absence of PMA served as a cytotoxicity plate and was not processed for adherence as described below, but used to monitor the potential cytotoxic effect of compounds for EL-4.1IL2 cells. Incubation time was 1 hour at 37° C. Following the incubation period, Plates #1 and #2 were processed as follows: the contents of each well were removed by flicking the plates into a catch tray and placing the plates inverted onto a paper towel in order to drain and blot the remaining draining wells. To each well, a volume of 100 μl of TCM was added at room temperature and the plates placed on a rotating platform shaker (Mini-Orbital Shaker, BELLCO Biotechnology, Vineland, N.J.) at setting 5 for 4 minutes. The plates were then rotated 180° and subjected to an additional 4 minutes of shaking. The plates were removed and their contents again removed as described, blotted, TCM added to each well, and the plates placed on the rotating shaker. This process was repeated for two additional wash cycles.
Following the removal of well contents, a volume of 200 μl of TCM and 75 of MTT solution (2 mg/ml in TCM) was added to each well of all plates. Plates were incubated at 37° C. for an additional 4 hours. Following incubation, the contents of Plates #1 and #2 were again removed by flicking the plate into the sink and the plates blotted onto paper towels. Plate #3 was centrifuged and likewise blotted. A volume of 200 μl of iPrOH was then added to each well of all plates in order to dissolve the resulting formazan crystals. The plates were read at 570 nm using a plate reader (Microplate Autoreader, Model EL-311, BIO-TEK Instruments, Inc., Winooski, Vt.). The absorbances for each set of triplicate wells were averaged and the standard error determined. […]

[3] = system: A549 human lung carcinoma cells; experiment: antiproliferative effect against A549 human lung carcinoma cells (MTT, 72 hours)
Description: as §1
A. Maintenance of cell line. The P388 murine leukemia cells were obtained from Dr. J. Mayo, National Cancer Institute, Bethesda, Md. The A549 cells and EL-4.IL-2 cells (TIB) were obtained from the American Type Culture Collection, Rockville, Md. The P388 cells were maintained in Roswell Park Memorial Institute medium 1640 (RPMI-1640) supplemented with 10% horse serum and cultured in plastic tissue culture flasks and kept in an incubator at 37° C. in humidified air containing 5% CO2. The A549 cells were similarly maintained in RPMI-1640 but supplemented with 10% fetal bovine serum. […]
as §3

[4] = system: tumor cell; experiment: inhibition of tumor cell growth (general statement); details: in words

C=C(CCC(C)C)COC(=O)C(O)C/C=C/CC1OC2/C=C\C/C=C/C(C)=C\C3OC(C/C=C/C=C/C(=O)OC(C2)C1(C)CO)CC(O)C3C (stereo not shown) [Lasonolide A]
IC50 ([1]; Table 4, MTT, 48 hours, read-out: P388 IC50): 0.002 µg/mL (≈ 0.00287 µM) | IC50 ([1]; read-out: IC50 against mouse leukemia cells): < 0.01 µg/mL | inhibitory properties against mouse leukemia cells ([1]; in words): strong inhibitory properties | IC50 ([2]; Table 4, Assay # 38, read-out: EL-4 Adherence IC50): 0.019 µg/mL (≈ 0.0273 µM) | IC50 ([2]; unit inferred, read-out: IC50 by EL-4 Adherence): 0.019 µg/mL (≈ 0.0273 µM) | EL-4 Adherence ([2]; Table 4, 3.125 μg/ml): Inh | EL-4 Adherence ([2]; Table 4, 6.25 μg/ml): Inh | EL-4 Adherence ([2]; Table 4, 12.5 μg/ml): Inh | EL-4 Adherence ([2]; Table 4, 25 μg/ml): Inh | Inhibition using the EL-4 Adherence assay ([2]; in words): strong | IC50 ([3]; Table 4, MTT, 72 hours, read-out: A549 IC50): 0.04 µg/mL (≈ 0.0574 µM) | IC50 ([3]; read-out: IC50 against cultured human lung carcinoma cells (A549)): 0.04 µg/mL (≈ 0.0574 µM) | inhibition of tumor cell growth [4]: inhibit tumor cell growth
